From patent publication US12171886B2, “Mussel adhesive protein-based photothermal agent and photothermal-responsive adhesive nanoparticles” (POSTECH RESEARCH AND BUSINESS DEVELOPMENT FOUNDATION, priority 2018, dated 2024) come the findings set out here.

This data set can be described thus: Absorbance of nanoparticles in the near-infrared region (UV-vis spectrometer). It is filed as physicochemical. The following applies: control solutions without DOPA-metal complex. The procedure:
Absorbances in the near-infrared region of the FeMAP NPs and VMAP NPs prepared in Example 1-3 were analyzed through a UV-vis spectrometer, and the analysis results are shown in FIG. 4.

Regarding `[Cl][Fe]([Cl])[Cl]` [FeCl3], the “absorbance, absorption spectrum 500 nm to 900 nm” value was “almost no absorbance”.

For the molecule `[Cl][V]([Cl])[Cl]` [VCl3], the “absorbance, absorption spectrum 500 nm to 900 nm” value is recorded as “almost no absorbance”.
